According to US20240294478A1, “ANTI-CANCER COMPOUNDS AND METHODS OF USE” (YALE UNIVERSITY, priority 2021, published 2024):
Where two headings read alike, the source gives them in different places.

What was measured:
[1] = tested on: LN229 MGMT−/MMR− intracranial tumors; test: Orthotopic intracranial LN229 MGMT-/MMR- model; format: in vivo, mouse; conditions: 25 mg/kg IP M-F x 1 week as printed
From the text: FIGS. 10A-10G. KL-50 is efficacious in an LN229 MGMT−/MMR− intracranial model and is well tolerated with limited myelosuppression at supratherapeutic doses. […] (FIG. 10B) Mean body change with SEM of mice during maximum tolerated dose experiment in non-tumor bearing mice. (FIGS. 10C-10G) Complete blood counts for mice pre-treatment and 7 days post-treatment with escalations of single dose KL-50 delivered PO. WBC lower limit of normal (LLN): 2.2 K/L; Neutrophils LLN: 0.42 K/L; Lymphocyte LLN: 1.7 K/L; RBC LLN: 3.47 M/L; Platelet LLN: 155 K/L. *, P<0.05; ****, P<0.0001.
Mouse Protocol for Intracranial Study. LN229 MGMT−/MMR− cells stably expressing firefly luciferase (lentivirus-plasmids from Cellomics Technology; PLV-10003), were injected intracranially using a stereotactic injector. Briefly, 1.5 million cells in […] PBS were injected into the brain and the mice were imaged weekly using the IVIS Spectrum In Vivo Imaging System (PerkinElmer) according to the manufacturer's protocol. Images were taken on a weekly basis and acquired 10 min post intraperitoneal injection with d-luciferin (150 mg/kg of animal mass). […] Quantification of BLI flux (photons/see) was made through the identification of a region of interest (ROI) for each tumor.

[2] = tested on: LN229 MGMT+/MMR− cells; test: Short-term cell viability assay, LN229 MGMT+/MMR- (shRNA targeting MSH2); format: cell-based; conditions: Homo sapiens
Protocol: LN229 MGMT- and MGMT+ cell lines were a gift from B. Kaina (Johannes Gutenberg University Mainz, Mainz, Germany) and grown in Gibco® Duilbecco's Modified Eagle Medium with 10% fetal bovine serum (DMEM). For each compound tested, the relationship between MGMT status and MMR status and compound activity, in terms of IC50 values ([…]), was determined by the following method. On day 1, LN229 isogenic cells of varying MGMT and MMR status were seeded in 96 well format at a density of 2000 cells/well in 100 μL of DMEM media and allowed to adhere overnight. On day 2, a drug master plate was made with 100×the desired maximal concentration of test compound and serially diluted by 2 until 100×the minimal desired concentration, with one DMSO control. Then daughter plates were created with varied concentrations from 3-times the minimal concentration to 3-times the maximal desired concentration. Afterwards, 50 μL of daughter drug plate was added to 100 μL of the seeded cells for a final concentration of 1×in triplicate. Cells were allowed to grow for 6 days. On day 7, the cells were fixed, and stained with Hoechst nuclear dye and imaged to determine growth inhibition.
For each compound tested, the relationship between MGMT status and MMR status and compound activity, in terms of IC50 values (in μM), was determined. In addition, for each compound, the therapeutic index (TI) was calculated, according to the equation MGMT TI=IC50 (MGMT+/MMR+) divided by IC50 (MGMT−/MMR+). The T1 indicates the efficacy of a compound in treating the targeted MGMT-cancer cells as compared to potential for the same compound to damage, or have adverse effects against, normal cells which are MGMT+cells, The higher the value of the TI, the safer the compound is. […] MMR RI (resistance index)=IC50 (MGMT−/MMR−) divided by IC50 (MGMT−/MMR+). The higher the value of the RI, the less likely that resistance to the compound will develop.
Short-term Cell Viability Assay. Cells were seeded in 96-well plates at 1000 or 2000 cells/well and allowed to adhere at 23° C. for 60 min and then incubated overnight at 37° C. Cells were treated with indicated concentrations of compounds in triplicate for 4-6 days prior to fixation with 3.7% paraformaldehyde and nuclear staining with 1 μg/mL Hoechst 33342 dye. Cells were imaged on a Cytation 3 imaging reader (BioTek) and quantified using CellProfiler software. For in vitro short-term growth delay experiments, IC50 values were determined from the nonlinear regression equation, [inhibitor] vs normalized response with variable slope.

[3] = tested on: LN229 MGMT+/−, MMR+/− cells; test: Micronuclei analysis; format: cell-based, human; conditions: 20 μM, 48 h
From the text: FIGS. 8A-8K. (FIG. 8A) Change in percent cells with 1 micronuclei from baseline (DMSO control) after treatment as in FIGS. 5A and 5C. Columns, mean; error bars, SD; n>15 technical replicates; **** p<0.0001; ns, not significant. (FIG. 8B) Short-term viability assay curves for KL-50 in PD20 cells, deficient in FANCD2 (FANCD2−/−) or complemented with FANCD2 (+FANCD2). (FIG. 8C) Short-term viability assay curves for KL-50 in PEO4 (BRCA2+) and PEO1 (BRCA2−/−) cells pre-treated with 0.01% DMSO control or 10 μM O^6BG (+O^6BG) for 1 h prior to KL-50 addition. (FIG. 8D) Short-term viability assay curves for KL-50 in DLD1 BRCA2+/− and BRCA2−/−cells pre-treated with 0.01% DMSO control or 10 μM O^6BG (+O^6BG) for 1 h prior to KL-50 addition. For FIGS. 8B-8D, points, mean; error bars, SD; n=3 technical replicates. […] (FIG. 8E) Validation of micronuclei identification using olaparib as positive control. […] The % FANCD2 ubiquitination (% FANCD2 Ub) is quantified as the background-corrected integrated band intensity of the upper band divided by the sum of the background-corrected integrated band intensities of the upper and lower bands. […]
Micronuclei Analysis. An automated image analysis pipeline was developed by YCMD using InCell Analyzer software to quantify micronuclei formation. […]

[4] = LN-229, Table II, read-out: IC50 against LN229 cell lines, MGMT MMR−

Compound	intracranial tumor growth (BLI) [1]	IC50 [2, 4] [µM]	micronuclei formation ([3]; greatest in MGMT−/MMR− cells)	IC50 ([2]; LN-229, 144 h, Table 1, 6 days growth, read-out: IC50 against LN229 cell lines, MGMT+ MMR−) [µM]	foci induction or micronuclei formation in MGMT−/MMR− cells [3]
NC(=O)c1ncn2c(=O)n(CCF)nnc12 [KL-50]	effective	504 ± 55	significant increase in micronuclei		
Cn1nnc2c(C(N)=O)ncn2c1=O [TMZ, 4-methyl-5-oxo-2,3,4,6,8-pentazabicyclo[4.3.0]nona-2,7,9-triene-9-carboxamide, reference compound]	only transiently suppressed tumor growth	1000 ± 107		> 100	not observed
